One data set relates to Caspase-3. Description: Western blot of Caspase-3 in Skmel-28 melanoma cells treated with CoQ10 building block components. The class given is cell-based. To be noted: for Caspase-3 expression / apoptotic effect: all concentrations and time points tested. As to the method: (§1) Skmel-28 melanoma cells were cultured in DMEM/F12 supplemented with 5% Fetal Bovine Serum (FBS) and 1× final concentration of Antibiotics. The cells were grown to 85% confluency and treated with building block components for 3, 6, 12 and 24 hours. The cells were then pelleted and a Western blot analysis was performed.
(§2) In the Western Blot Analysis, the cells were pelleted in cold PBS, lysed, and the protein levels were quantified using a BCA protein assay. The whole cell lysate was loaded in a 4% loading 12% running Tris-HCl gel. The proteins were then transferred to a nitrocellulose paper then blocked with a 5% milk Tris-buffered solution for 1 hour. The proteins were then exposed to primary antibodies (Bcl-2 and Caspase-3) overnight. The nitrocellulose paper was then exposed to Pico Chemilluminescent for 5 min and the protein expression was recorded. After exposure, actin was quantified using the same method. Using ImageJ the levels of protein expression were quantified. A t-Test was used to analyze for statistical significance.

The next data set deals with Bcl-2. Description: Western blot of Bcl-2 in Skmel-28 melanoma cells treated with CoQ10 building block components. The data set is classed as cell-based. The procedure: as §1, §2
A general note: In western blotting, separated proteins are transferred to a membrane and probed.

In a further data set the test system is Melanoma cells. Description: Cell proliferation assay (live cell count) of building block combinations. The data set is classed as cell-based. As to the method:
Cell Proliferation Assay of the Combination of 4-Hydroxy-Benzoate with Benzoquinone: This set of experiments used a cell proliferation assay to assess the effect of combining different building block molecules on cell proliferation.
The first study examined the effect of combining 4-Hydroxy-Benzoate with Benzoquinone. Cells were incubated for 48 hours, after which a cell count was performed for the live cells. Each test group was compared to the control, and each combination groups were compared to Benzoquinone control. The compounds were statistically analyzed for the addition of Benzoquinone.
Additional studies were performed testing additional molar ratios. For the first test 4-Hydroxybenzoic were tested at concentrations of 500 nM, 1 μM, and 50 μM. These concentrations were tested in combination with 2,3-Dimethoxy-5-methyl-p-benzoquinone (Benzo). The concentration of Benzo tested were 25 μM, 50 μM, and 100 μM. Melanoma cells were grown to 80% confluency and seeded in 6 well plates at a concentration of 40K cells per well. The cells were treated with CoQ10, 4-Hydroxybenzoate, Benzo, and a combination of 4-Hydroxybenzoate/Benzo.
A T-test was performed with p<0.05 as statistically significant.

Data set [1] has as its system neonatal fibroblast cells. Description: Cell proliferation assay (coulter counter). The data set is classed as cell-based. To be noted: HB 500 nM, 5 μM, 25 μM alone and with benzoquinone 25, 50, 100 μM; 24 hours.
Description: A cell proliferation assay was also performed on neonatal fibroblast cells. The concentrations of HB tested were 500 nM, 5 μM, and 25 μM. HB was also tested in combination with benzoquinone at a concentrations of 25 μM, 50 μM, and 100 μM. […] The cells were trypsinized and quantified using a coulter counter.
The next data set has as its system tumor cells. Conditions: cited from earlier work.
For a further data set, the system named is HDFa cells. Description: SeaHorse XF analyzer OCR and ECAR. The class given is cell-based, human. An excerpt: Environmental influencers (e.g., MIMs or Epi-shifters) may also be identified by changes in cellular energetics. One example of the measurement of cellular energetics are the real-time measures of the consumption of molecular oxygen and/or the change in pH of the media of a cell culture. For example, the ability of a potential epi-shifter to modulate the metabolic state of a cell may be analyzed using, for example, the XF24 Analyzer (Seahorse, Inc.). This technology allows for real time detection of oxygen and pH changes in a monolayer of cells in order to evaluate the bioenergetics of a cell microenvironment. The XF24 Analyzer measures and compares the rates of oxygen consumption (OCR), which is a measure of aerobic metabolism, and extracellular acidification (ECAR), which is a measure of glycolysis, both key indicators of cellular energetics.
(SeaHorse Biosciences Inc, North Billerica, Mass.).
In this experiment, the OCR and extracellular acidification rate (ECAR) in normal cells lines were obtained in the presence and absence of CoQ10 to determine baseline values. It was observed that in its native nutrient environment, the basal OCR rates in normal cells lines are different, and are usually a function of the physiological roles of the cells in the body.
For example, one set of experiments were conducted using the non-cancerous cell line HDFa, which is a human adult dermal fibroblast cell line. Fibroblasts are cells that primarily synthesize and secrete extracellular matrix (ECM) components and collagen that form the structural framework (stroma) for tissues. In addition, fibroblasts are known to serve as tissue ambassadors of numerous functions such as wound healing and localized immnomodulation. Under normal physiological conditions, energy requirements in normal fibroblasts are met using a combination of glycolysis and oxidative phosphorylation—the glycolysis providing the necessary nutrients for synthesis of ECM.
FIGS. 29 and 30 describe the OCR in HDFa and HASMC cells grown in physiologically normal glucose (about 4.6 mM) and high glucose (hyperglycemic) conditions.

The mark [2] stands for this setting: 24 hours, concentration not given.
Where [3] appears, read: all concentrations and time points tested.

As for `NC(Cc1ccccc1)C(=O)O` (racemic) [DL-Phenylalanine], the Caspase-3 expression entry with Caspase-3 (3 hours, concentration not given) is “statistically significant increase”. Further, in the data set with Bcl-2 (setting [2]), the Bcl-2 expression entry is “statistically significant decrease”.

For the molecule `NC(Cc1ccc(O)cc1)C(=O)O` (racemic) [DL-Tyrosine], the Caspase-3 expression result is given as “increase” in the data set on Caspase-3 (5 μM, 12 hours) and “increase” with Caspase-3 (15 μM, 12 hours). For the same molecule, the Bcl-2 expression result in the data set on Bcl-2 (1 μM, 12 hours) was “statistical decrease”; with Bcl-2 (5 μM, 24 hours) it was “statistical decrease”; in the data set with Bcl-2 (15 μM, 12 hours) it was “statistical decrease”.

Consider `COc1cc(C(O)C(=O)O)ccc1O` (centres unmarked) [3-methoxy-4-hydroxymandelate], for which the “Caspase-3 expression / apoptotic effect” value with Caspase-3 is “no statistically significant apoptotic effect”. Moreover, the Bcl-2 expression entry in the data set with Bcl-2 (setting [3]) was “downward trend”.

With `O=C(O)C(=O)Cc1ccc(O)cc1` [4-Hydroxy-phenylpyruvate], the Caspase-3 expression result in the data set with Caspase-3 (5 μM, 12 hours) is recorded as “significant increase”; in the data set on Caspase-3 (15 μM, 12 hours), “significant increase”. Moreover, the Bcl-2 expression entry with Bcl-2 (5 μM, 24 hours) is “significant reduction”; in the data set on Bcl-2 (15 μM, 24 hours) it was “significant reduction”.

Take `O=C(O)c1ccc(O)cc1` [4-Hydroxybenzoate]: the “cell number vs control” value with Melanoma cells (48 hours incubation) is recorded as “significant decrease in cell number”. Further, in the data set on Melanoma cells (additional molar ratios, HB 500 nM, 1 μM, 50 μM), the “cell proliferation vs control” value was “significant decrease in cell proliferation”. For the same molecule, in data set [1], the “reduction in fibroblast cells” value is on record as “did not show a significant reduction”.

Regarding `CC(=O)SCCNC(=O)CCNC(=O)[C@H](O)C(C)(C)COP(=O)(O)OP(=O)(O)OC[C@H]1O[C@@H](n2cnc3c(N)ncnc32)[C@H](O)[C@@H]1OP(=O)(O)O` [Acetyl-CoA], the “Caspase-3 expression / apoptotic effect” value in the data set on Caspase-3 was “no significant observed reduction in Bcl-2 or increase in Caspase-3 expression”. The Bcl-2 expression result in the data set with Bcl-2 (setting [3]) is recorded as “no significant observed reduction”.

As to `CC(=O)NCC(=O)O` [Acetylglycine], the Bcl-2 expression result with Bcl-2 (5 μM, 12 hours) was “significant decrease”; in the data set with Bcl-2 (25 μM, 12 hours), “significant decrease”; with Bcl-2 (100 μM, 24 hours), “significant decrease”.

In the case of `N[C@H](Cc1ccccc1)C(=O)O` [D-Phenylalanine], the Caspase-3 expression result in the data set on Caspase-3 (5 μM, 6 hours) is listed as “significant increase”; in the data set on Caspase-3 (100 μM, 6 hours), “significant increase”. Besides, the Bcl-2 expression entry with Bcl-2 (5 μM, 3 hours) is “significant reduction”; with Bcl-2 (5 μM, 6 hours) it was “significant reduction”; in the data set on Bcl-2 (25 μM, 3 hours), “significant reduction”; in the data set on Bcl-2 (25 μM, 6 hours), “significant reduction”; with Bcl-2 (100 μM, 6 hours), “significant reduction”.

On to `N[C@H](Cc1ccc(O)cc1)C(=O)O` [D-Tyrosine], for which the Caspase-3 expression result in the data set on Caspase-3 (1 μM, 12 hours) is given as “increase”; with Caspase-3 (1 μM, 24 hours) it was “increase”; in the data set on Caspase-3 (5 μM, 3 hours), “significantly increased”; with Caspase-3 (5 μM, 12 hours), “significantly increased”; with Caspase-3 (5 μM, 24 hours), “significantly increased”. Also, the Bcl-2 expression result with Bcl-2 (5 μM, 12 hours) is “reduction”; with Bcl-2 (5 μM, 24 hours) it was “reduction”; in the data set on Bcl-2 (15 μM, 12 hours) it was “reduction”; in the data set with Bcl-2 (15 μM, 24 hours), “reduction”.

With `N[C@@H](Cc1ccccc1)C(=O)O` [L-Phenylalanine], the Bcl-2 expression entry in the data set with Bcl-2 (100 μM, 3 hours) is “statistically significant decrease”; with Bcl-2 (100 μM, 12 hours), “statistically significant decrease”.

Take `N[C@@H](Cc1ccc(O)cc1)C(=O)O` [L-Tyrosine]: the Bcl-2 expression entry with Bcl-2 (500 μM, 24 hours) is recorded as “statistically significant decrease”.

Regarding `C[C@@](O)(CCO)CC(=O)O` [Mevalonic Acid], the “Caspase-3 expression / apoptotic effect” value in the data set on Caspase-3 is “no significant reduction in Bcl-2 expression or an increase in Caspase-3 expression”. Besides, the Bcl-2 expression entry in the data set on Bcl-2 (setting [3]) was “no significant reduction”.

For the molecule `CC(C)(CO)[C@@H](O)C(=O)NCCCO` [Panthenol], the Bcl-2 expression entry in the data set on Bcl-2 (25 μM, time not stated) is “significant reduction”.

On to `Cc1ncc(CO)c(CO)c1O` [Pyridoxine], for which, in the data set on Bcl-2 (setting [2]), the Bcl-2 expression result was “significant reduction”.

Regarding `COc1cc(C(=O)O)ccc1O` [Vanillic acid], the Bcl-2 expression result with Bcl-2 (500 nM, 24 hours) is on record as “significantly reduce”; with Bcl-2 (5 μM, 24 hours) it was “significantly reduce”.

`C=C1/C(=C\C=C2/CCC[C@]3(C)[C@@H]([C@H](C)CCCC(C)(C)O)CC[C@@H]23)C[C@@H](O)C[C@@H]1O` [Vitamin D3, 1α, 25-dihydroxyvitamin D3]: in the data set on tumor cells (Deeb et al. 2007), the “expression of anti-apoptotic proteins BCL2 and BCL-XL” value was “repressing the expression”; the “expression of pro-apoptotic proteins (BAX, BAK, BAD)” value was “inducing the expression”; the “gene transcription of p21WAFI/CIPI” value is “induce gene transcription”. In the data set on tumor cells (Masuda and Jones 2006), the “expression of VEGF” value is “inhibit the expression” and the “proliferation of tumor-derived endothelial cells” value is “inhibit the proliferation”.

With `COC1=C(OC)C(=O)C(C/C=C(\C)CC/C=C(\C)CC/C=C(\C)CC/C=C(\C)CC/C=C(\C)CC/C=C(\C)CC/C=C(\C)CC/C=C(\C)CC/C=C(\C)CCC=C(C)C)=C(C)C1=O` [compound 31510], the ECAR was 5 mpH/min in the data set with HDFa cells (Hypoxia (5.5 mM), 50 μM); 5 mpH/min in the data set with HDFa cells (Hypoxia (5.5 mM), 100 μM); 6 mpH/min with HDFa cells (Hypoxia (22 mM), 50 μM); 8 mpH/min with HDFa cells (Hypoxia (22 mM), 100 μM); 6 mpH/min in the data set with HDFa cells (Normoxia (5.5 mM), 50 μM); 6 mpH/min in the data set on HDFa cells (Normoxia (5.5 mM), 100 μM). In addition, the ECAR was 5 mpH/min in the data set on HDFa cells (Normoxia (22 mM), 50 μM) and 5 mpH/min with HDFa cells (Normoxia (22 mM), 100 μM).

The values above are taken from patent US20210002725A1, “METHODS FOR THE DIAGNOSIS OF METABOLIC DISORDERS USING EPIMETABOLIC SHIFTERS, MULTIDIMENSIONAL INTRACELLULAR MOLECULES, OR ENVIRONMENTAL INFLUENCES” (Berg LLC, priority 2009, published 2021).
